Laboratory results published in patent US20240182910A1, “DRUG-REGULATABLE TRANSCRIPTION FACTORS” (Senti Biosciences, Inc., priority 2021, published 2024).

What was measured:
[1] = target: T1, mifepristone-inducible transcription factor (Homo sapiens, UniProt P06401, V660L); test: Transduction assay: mCherry reporter expression, mifepristone-inducible transcription factor; type: cell-based; conditions: U87-MG reporter cells, cell group E; 0, 1, 100, 1000 or 10000 nM mifepristone; FIG. 4
T1 construct: expressed in transfected cells; host or cells: U87-MG reporter cells, lentiviral transduction
Experimental: On day 1, reporter cells were transduced with lentivirus encoding the mifepristone-inducible transcription factor construct.
To assay for mifepristone-regulated transcription modulation, cell group E was thawed and four days later, the cells were split into a 48-well plate and treated with 0 nM, 1 nM, 100 nM, 1000 nM, or 10000 nM mifepristone. Six days after the cells were thawed, cells were trypsinized and then resuspended in FACS buffer plus Sytox Red (fluoresces in APC channel) viability dye. Cell mCherry geometric mean fluorescent intensity (gMFI) was measured at each concentration and normalized to no drug as shown in FIG. 4.

[2] = system: nicotine-inducible transcription factor; conditions: U87MG reporter cells co-transduced with constructs 12 and 13 (cell group G); nicotine 10 uM and 1 uM; flow cytometry day 5; FIG. 2 and FIG. 3
Experimental: U87MG cells transduced with a 4×ZF10-1 BS_minYBTATA:mCherry vector (referred to as “reporter cells”) were plated at 6e5/cells in a 6 well plate on day 0.
Cannabinoid-inducible transcription factor constructs included a first monomer construct (construct 14) composed of a first anti-CBD VHH (CA-14), a zinc finger protein domain of SEQ ID NO: 1, a nuclear localization signal of SEQ ID NO: 2, a cleavable linker, and a BFP tag, and a second monomer construct (construct 15) composed of a 3×FLAG-tagged nuclear localization signal (NLS) of SEQ ID NO: 2, a VPR transcriptional activation domain, a second anti-CBD VHH that is oligomerizable with the first anti-CBD VHH (DB-21), a cleavable linker, and a GFP tag.
Day 5, flow cytometry was performed, and the cells were gate on GFP/BFP

AlcR = AlcR (Emericella nidulans, UniProt P21228); set-up: key: A, activation; DA, deactivation; DR, derepression; conditions: AIR; PAIR (OalcA-PhCMVmin); cited from earlier work
AlcR, sequence (P21228 whole entry): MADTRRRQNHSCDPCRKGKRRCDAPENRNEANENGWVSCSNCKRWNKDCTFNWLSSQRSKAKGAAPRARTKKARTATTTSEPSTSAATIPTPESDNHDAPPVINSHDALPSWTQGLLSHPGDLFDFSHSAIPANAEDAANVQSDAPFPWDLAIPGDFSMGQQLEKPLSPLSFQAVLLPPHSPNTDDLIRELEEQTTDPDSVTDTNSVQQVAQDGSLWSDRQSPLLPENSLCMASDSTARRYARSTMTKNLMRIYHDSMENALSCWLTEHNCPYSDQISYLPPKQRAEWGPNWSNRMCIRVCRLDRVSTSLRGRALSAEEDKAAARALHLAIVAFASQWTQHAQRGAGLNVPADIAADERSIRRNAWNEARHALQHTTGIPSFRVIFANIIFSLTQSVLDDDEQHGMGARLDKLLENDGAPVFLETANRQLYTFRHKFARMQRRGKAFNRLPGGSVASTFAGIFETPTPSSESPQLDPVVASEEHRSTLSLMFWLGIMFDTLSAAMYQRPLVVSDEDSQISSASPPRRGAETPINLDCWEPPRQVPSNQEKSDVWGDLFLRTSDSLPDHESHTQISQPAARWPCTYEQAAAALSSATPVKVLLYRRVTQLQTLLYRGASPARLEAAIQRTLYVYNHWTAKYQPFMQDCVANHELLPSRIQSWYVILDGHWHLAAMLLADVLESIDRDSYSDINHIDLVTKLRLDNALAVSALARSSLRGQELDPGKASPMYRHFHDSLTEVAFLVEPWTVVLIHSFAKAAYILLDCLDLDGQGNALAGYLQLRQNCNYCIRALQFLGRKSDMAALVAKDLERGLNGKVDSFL

T1 sequence (P06401 with tags, fused parts or gaps V660L): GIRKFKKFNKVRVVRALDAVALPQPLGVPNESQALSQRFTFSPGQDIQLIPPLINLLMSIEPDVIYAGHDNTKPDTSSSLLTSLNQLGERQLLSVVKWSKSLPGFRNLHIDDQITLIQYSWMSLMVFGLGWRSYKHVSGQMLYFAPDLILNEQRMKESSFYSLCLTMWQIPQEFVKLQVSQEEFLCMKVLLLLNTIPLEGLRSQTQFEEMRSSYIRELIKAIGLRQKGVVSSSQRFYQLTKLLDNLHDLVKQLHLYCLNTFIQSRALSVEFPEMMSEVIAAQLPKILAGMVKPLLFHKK

Structure (SMILES): CC#C[C@]1(O)CC[C@H]2[C@@H]3CCC4=CC(=O)CCC4=C3[C@@H](c3ccc(N(C)C)cc3)C[C@@]21C [mifepristone]
- mCherry expression (mCherry gMFI normalized to no drug) [1]: induced mCherry expression in the presence of drug in a concentration-dependent manner

Structure (SMILES): CN1CCCC1c1cccnc1 (stereo not drawn) [nicotine]
- reporter (mCherry) expression: percent of mCherry positive cells and mean fluorescent intensity [2]: induced concentration-dependent reporter expression

Structure (SMILES): CC=O [Acetaldehyde]
- Response to inducer: T (transgene transcription) (AlcR): A
